In ChEMBL document CHEMBL5131397, “Discovery and Optimization of Pyrazole Amides as Inhibitors of ELOVL1” (J Med Chem, 2021):
Calls of active or inactive are those of the source. No cut-off for these calls is given here.

Tests used:
[1] = target: T1, Very long chain fatty acid elongase 1 (Homo sapiens, UniProt Q9BW60); experiment: Inhibition of ELOVL1 in human HEK293 cells assessed as reduction of C26:0 VLCFA synthesis incubated for 48 hrs by cellular assay; type: cell-based
T1 sequence (Q9BW60 whole entry): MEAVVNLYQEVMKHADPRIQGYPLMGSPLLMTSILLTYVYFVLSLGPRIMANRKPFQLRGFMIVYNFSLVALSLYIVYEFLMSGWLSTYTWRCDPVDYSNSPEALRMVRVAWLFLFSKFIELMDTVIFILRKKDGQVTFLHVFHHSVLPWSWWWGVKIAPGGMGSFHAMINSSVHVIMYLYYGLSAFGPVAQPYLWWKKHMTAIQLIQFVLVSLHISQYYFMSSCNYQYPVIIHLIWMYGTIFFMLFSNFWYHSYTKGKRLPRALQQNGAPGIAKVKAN

[2] = AUC (infinity) in Sprague-Dawley rat at 3 mg/kg, po upto 24 hrs by LC/MS/MS analysis; type: ADME, organism-based; set-up: dose 3 mg/kg, time < 24 hrs, route po; details: in vivo
[3] = Volume of distribution at steady state in Cynomolgus monkey at 1 mg/kg, iv upto 48 hrs by LC/MS/MS analysis; type: ADME, organism-based, Macaca fascicularis; details: in vivo, read-out: Vdss
[4] = Plasma protein binding in dog at 5 uM; type: ADME, cell-free, Canis lupus familiaris; details: read-out: PPB (converted)
[5] = target: T1, Very long chain fatty acid elongase 1; experiment: Inhibition of ELOVL1 in human HEK2936E cells assessed as reduction of C26:0 LPC synthesis incubated for 48 hrs by cellular assay; type: cell-based
[6] = Intrinsic clearance in rat hepatocytes assessed per million cells; type: ADME, cell-based, Hepatocyte; details: read-out: CLH
[7] = Clearance in Cynomolgus monkey at 1 mg/kg, iv upto 48 hrs by LC/MS/MS analysis; type: ADME, organism-based, Macaca fascicularis; details: in vivo
[8] = Tmax in Sprague-Dawley rat at 3 mg/kg, po upto 24 hrs by LC/MS/MS analysis; type: ADME, organism-based; details: in vivo
[9] = Tmax in Beagle dog at 3 mg/kg, po upto 24 hrs by LC/MS/MS analysis; type: ADME, organism-based, Canis lupus familiaris; details: in vivo
[10] = Cmax in Cynomolgus monkey at 3 mg/kg, po upto 24 hrs by LC/MS/MS analysis; type: ADME, organism-based, Macaca fascicularis; set-up: time < 24 hrs, dose 3 mg/kg, route po; details: in vivo
[11] = target: T2, Very long chain fatty acid elongase 4 (Homo sapiens, UniProt Q9GZR5); experiment: Inhibition of ELOVL4 (unknown origin) in presence of C26-acyl-CoA by radiometric enzyme assay
T2 sequence (Q9GZR5 whole entry): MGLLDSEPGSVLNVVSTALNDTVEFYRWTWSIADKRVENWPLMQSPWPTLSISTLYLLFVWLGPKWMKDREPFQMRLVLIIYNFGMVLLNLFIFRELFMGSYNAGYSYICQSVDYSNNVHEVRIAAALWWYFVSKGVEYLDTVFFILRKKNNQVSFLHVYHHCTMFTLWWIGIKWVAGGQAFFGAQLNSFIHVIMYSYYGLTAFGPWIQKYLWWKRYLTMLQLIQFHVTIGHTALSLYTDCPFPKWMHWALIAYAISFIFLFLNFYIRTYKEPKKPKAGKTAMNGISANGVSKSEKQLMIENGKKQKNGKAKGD

[12] = target: T1, Very long chain fatty acid elongase 1; experiment: Inhibition of ELOVL1 in Het […] 1 patient-derived human lymphocyte assessed as reduction of C26:0 VLCFA synthesis incubated for 48 hrs by cellular assay; type: cell-based
Fibroblast = experiment: Reduction in C26:0/C16:0 lysophosphatidyl choline levels in primary human CALD patient-derived fibroblast incubated for 48 hrs; type: functional, cell-based
Mus musculus [13] = experiment: Reduction of C26:0 LPC level in ABCD1 KO mouse blood at 5 to 20 mg/kg, po qd for 8 months continuous dosing by LC-MS/MS analysis; type: functional, organism-based; details: dose 5-20 mg/kg
[14] = Reduction in C26:0 LPC level in ABCD1 knock out mouse blood at or above 4 mg/kg, po qd for 105 days by LC-MS/MS analysis relative to control; type: functional; set-up: scale not given: the % may be the effect or the level left; details: time 105 day
[15] = Reduction in C26:0/C16:0 LPC level in wild-type Sprague-Dawley rat at 100 mg/kg, po qd treated for 7 days by LC-MS/MS analysis; type: functional; set-up: scale not given: the % may be the effect or the level left; details: time 7 day
[16] = Reduction in C26:0 LPC level in Cynomolgus monkey plasma at 15 mg/kg, po qd for 13 weeks by LC-MS/MS analysis; type: functional, Macaca fascicularis; set-up: scale not given: the % may be the effect or the level left
Mus musculus [17] = experiment: Reduction in C26:0/C16:0 LPC level in ABCD1 knock out mouse CNS at 1 to 10 mg/kg, po qd measured after 2 months of dosing by LC-MS/MS analysis; type: functional, organism-based; details: dose 1-10 mg/kg
[18] = Increase in C20:0/C16:0 LPC level in ABCD1 knock out mouse CNS at 1 mg/kg, po qd measured after 3 months of dosing by LC-MS/MS analysis; type: functional; details: 2190 h
[19] = Toxicity in Sprague-Dawley rat assessed as decrease in body weight at 5 to 50 mg/kg/day, po administered for 2 weeks; type: organism-based; details: in vivo, 336 h, dose 5-50 mg/kg/day
[20] = Toxicity in Sprague-Dawley rat assessed as corneal keratitis at 5 mg/kg/day, po administered for 8 weeks by macroscopic observation analysis; type: organism-based; details: in vivo, 1344 h
[21] = Toxicity in Sprague-Dawley rat assessed as ocular inflammation at 5 mg/kg/day, po administered for 8 weeks by microscopic observation analysis; type: organism-based; details: in vivo, 1344 h
[22] = Toxicity in juvenile Sprague-Dawley rat assessed as corneal lesions at 5 to 75 mg/kg/day, po treatment started from postnatal day 18 to 114 days; type: organism-based; details: in vivo, dose lower 5 mg/kg/day, time lower 18 day, dose upper 75 mg/kg/day, time upper 114 day
[23] = Toxicity in Cynomolgus monkey assessed as neurological signs of convulsions at 50 mg/kg/day, po administered for 14 days; type: organism-based, Macaca fascicularis; details: in vivo, 336 h, time 14 day
[24] = Toxicity in Cynomolgus monkey assessed as skin lesions at 5 to 50 mg/kg/day, po administered for 14 days; type: organism-based, Macaca fascicularis; details: in vivo, 336 h, dose 5-50 mg/kg/day, time 14 day
[25] = Toxicity in Cynomolgus monkey assessed as dry and red scaly areas on thorax at 5 to 50 mg/kg/day, po administered for 14 days by macroscopic observation analysis; type: organism-based, Macaca fascicularis; details: in vivo, 336 h, dose 5-50 mg/kg/day, time 14 day
[26] = Toxicity in Cynomolgus monkey assessed as hyperkeratosis at 5 to 50 mg/kg/day, po administered for 14 days by microscopic observation analysis; type: organism-based, Macaca fascicularis; details: in vivo, 336 h, dose 5-50 mg/kg/day, time 14 day
[27] = Toxicity in Cynomolgus monkey assessed as acanthosis at 5 to 50 mg/kg/day, po administered for 14 days by microscopic observation analysis; type: organism-based, Macaca fascicularis; details: in vivo, 336 h, dose 5-50 mg/kg/day, time 14 day

- IC50 [1]: 13 nM
- AUC [2]: 442 ng·h/mL
- Vd [3]: 3 L/kg
- fraction unbound at 5 µM [4]: 0.061
- IC50 [5]: 13 nM
- hepatocyte CLint [6]: 14 µL/min/1e6 cells
- clearance [7]: 7 mL/min/kg
- Tmax [8]: 24 min
- Tmax [9]: 30 min
- Cmax [10]: 404 ng/mL
- IC50 [11]: > 200000 nM
- IC50 [12]: 5 nM
Compound: O=C(Nc1ccn(-c2ccnc(F)c2)n1)C1(c2ccccc2F)CC1
- Activity (Fibroblast): Active
- Activity (Mus musculus [13]): Active
- Activity [14]: 85%
- Activity [15]: 77%
- Activity [16]: 82%
- Activity (Mus musculus [17]): Active
- Activity [18]: 18%
- Activity [19]: Toxic
- Activity [20]: Toxic
- Activity [21]: Toxic
- Activity [22]: Toxic
- Activity [23]: Toxic
- Activity [24]: Toxic
- Activity [25]: Toxic
- Activity [26]: Toxic
- Activity [27]: Toxic
